Data from the supplement of paper PMC10307832.

Key:
Assay in all cases: relative viability (nuclei count vs DMSO), 5 days (fraction); higher = more cells survive
[1] = compound: C[C@@H](N)c1ccc(C(=O)Nc2ccnc3[nH]ccc23)cc1 + Cc1cc(Nc2cc(N3CCN(C)CC3)nc(Sc3ccc(NC(=O)C4CC4)cc3)n2)n[nH]1 [Tozasertib] (partner 0.1 µM)
How it was run: (§1)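 For relative viability, nuclei counts in treated wells were divided by those in vehicle wells. Lung cancer cell lines had been pin-tool dosed in 1536-well plates the day after seeding and cultured for 5 days, then fixed and stained in one step (final 0.05% Triton X-100, 1% formaldehyde, 1 ug/ml Hoechst) and imaged at 4×. Doses were one drug alone or a fixed anchor-drug dose plus five library-drug doses (not always all listed) in √10 steps, and values are duplicate-plate medians.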

[2] = compound: O[C@H]1CC[C@H](Nc2ncc3nc(Nc4c(F)cc(F)cc4F)n([C@H]4CCOC4)c3n2)CC1 [Tanzisertib] + CC1(C)CCC(c2ccc(Cl)cc2)=C(CN2CCN(c3ccc(C(=O)NS(=O)(=O)c4ccc(N[C@H](CCN5CCOCC5)CSc5ccccc5)c(S(=O)(=O)C(F)(F)F)c4)cc3)CC2)C1 [Navitoclax] (partner 0.5 µM)
How it was run: as §1

[3] = compound: C1CNCCC1C2=CC(=NN2)C3=CC=NC=C3 + Cc1nc(NC(=O)N2CCC[C@H]2C(N)=O)sc1-c1ccnc(C(C)(C)C(F)(F)F)c1 [Alpelisib] (partner 2 µM)
How it was run: as §1

[4] = compound: O[C@H]1CC[C@H](Nc2ncc3nc(Nc4c(F)cc(F)cc4F)n([C@H]4CCOC4)c3n2)CC1 [Tanzisertib] + NC(=O)Nc1cc(-c2cccc(F)c2)sc1C(=O)N[C@H]1CCCNC1 [AZD7762] (partner 0.2 µM)
How it was run: as §1

| Cell Line | relative viability ([1]; first compound 0.04 µM) | relative viability ([1]; first compound 0.1265 µM) | relative viability ([1]; first compound 0.4 µM) | relative viability ([1]; first compound 1.265 µM) | relative viability ([1]; first compound 4 µM) | relative viability ([2]; first compound 0.08 µM) | relative viability ([2]; first compound 0.253 µM) | relative viability ([2]; first compound 0.8 µM) | relative viability ([2]; first compound 2.53 µM) | relative viability ([2]; first compound 8 µM) | relative viability ([3]; first compound 0.08 µM) | relative viability ([3]; first compound 0.8 µM) | relative viability ([3]; first compound 2.53 µM) | relative viability ([3]; first compound 8 µM) | relative viability ([4]; first compound 0.08 µM) | relative viability ([4]; first compound 0.253 µM) | relative viability ([4]; first compound 0.8 µM) | relative viability ([4]; first compound 2.53 µM) | relative viability ([4]; first compound 8 µM) |
| --- | --- | --- | --- | --- | --- | --- | --- | --- | --- | --- | --- | --- | --- | --- | --- | --- | --- | --- | --- |
| NCI-H1993 | 0.579 | 0.591 | 0.56 | 0.639 | 0.6 | 1.08 | 0.909 | 0.947 | 0.924 | 0.803 | 0.654 | 0.668 | 0.699 | 0.669 | 1.21 | 0.867 | 0.731 | 0.68 | 0.823 |
| NCI-H1437 | 0.462 | 0.433 | 0.448 | 0.436 | 0.408 | 1.14 | 1.1 | 1.08 | 1.13 | 1.08 | 0.941 | 0.979 | 0.999 | 0.928 | 1.15 | 1.15 | 1.12 | 1.12 | 1.12 |
| NCI-H838 | 0.268 | 0.281 | 0.224 | 0.219 | 0.189 | 1.18 | 1.15 | 1.26 | 1.18 | 1.12 | 0.984 | 1.11 | 1.03 | 0.996 | 0.964 | 0.962 | 0.889 | 0.909 | 0.972 |
| NCI-H1666 | 0.605 | 0.618 | 0.63 | 0.698 | 0.593 | 0.972 | 1.03 | 0.916 | 1.06 | 0.878 | 0.907 | 0.849 | 1.18 | 1.13 | 0.939 | 0.905 | 0.848 | 0.9 | 0.684 |
| NCI-H1944 | 0.278 | 0.269 | 0.271 | 0.258 | 0.218 | 1.11 | 1.04 | 1.04 | 1.05 | 1.03 | 0.85 | 0.601 | 0.83 | 0.938 | 0.526 | 0.507 | 0.52 | 0.422 | 0.458 |
| NCI-H1755 | 0.568 | 0.602 | 0.725 | 0.581 | 0.559 | 1.1 | 1.02 | 0.98 | 0.982 | 0.931 | 0.938 | 0.837 | 0.906 | 0.863 | 0.462 | 0.474 | 0.441 | 0.399 | 0.384 |
| NCI-H23 | 0.377 | 0.358 | 0.425 | – | 0.501 | 0.964 | 0.75 | 0.912 | 0.86 | 0.819 | 0.614 | 0.691 | 0.713 | 0.69 | 0.224 | 0.245 | 0.236 | 0.317 | 0.214 |
| 201T | 0.945 | 0.897 | 0.977 | 1.08 | 1.04 | 1.19 | 1.18 | 1.23 | 1.18 | 1.18 | 1.06 | 0.841 | 1.04 | 1.04 | 0.659 | 0.528 | 0.578 | 0.555 | 0.524 |
| NCI-H1734 | 0.263 | 0.247 | 0.259 | 0.213 | 0.202 | 1.03 | 0.777 | 0.852 | 0.867 | 0.757 | 0.684 | 0.618 | 0.768 | 0.706 | 0.596 | 0.532 | 0.558 | 0.534 | 0.526 |
| NCI-H1355 | 0.605 | 0.552 | 0.562 | 0.565 | 0.555 | 0.954 | 0.923 | 0.961 | 0.985 | 0.944 | 0.826 | 0.706 | 0.804 | 0.822 | 0.847 | 0.822 | 0.813 | 0.71 | 0.708 |
| NCI-H1915 | 0.455 | 0.472 | 0.45 | – | 0.331 | 0.793 | 0.786 | 0.78 | 0.805 | 0.83 | 1 | 1.06 | 1.07 | 1.09 | 0.716 | 0.675 | 0.709 | 0.714 | 0.653 |
| BEN | 0.466 | 0.432 | 0.53 | 0.484 | 0.48 | 0.0685 | 0.0675 | 0.0797 | 0.072 | 0.0632 | 0.712 | 1.07 | 0.936 | 0.984 | 0.622 | 0.8 | 0.868 | 0.724 | 0.565 |
| NCI-H3122 | 0.397 | 0.357 | 0.497 | – | 0.468 | 1.03 | 1.02 | 1.04 | 1.07 | 0.972 | 0.87 | 0.81 | 0.799 | 0.753 | 1.13 | 1.03 | 1.03 | 0.981 | 0.993 |
| HOP-62 | 0.328 | 0.351 | 0.369 | 0.398 | 0.297 | 0.978 | 0.994 | 0.819 | 1.11 | 1.26 | 0.734 | 0.933 | 1.11 | 0.858 | 0.483 | 0.503 | 0.708 | 0.625 | 0.47 |
| HCC-366 | 0.141 | 0.169 | 0.132 | – | 0.229 | 1.16 | 1.02 | 1.08 | 1.13 | 1.01 | 0.561 | 0.233 | 0.426 | 0.378 | – | 0.316 | 0.277 | 0.192 | 0.286 |
| NCI-H2347 | 0.466 | 0.64 | 0.592 | – | 0.706 | 0.793 | 0.809 | 0.888 | 0.87 | 0.837 | 0.989 | 0.938 | 1.17 | 1.01 | 0.866 | 0.718 | 0.825 | 0.762 | 0.662 |
| LXF-289 | 0.147 | 0.185 | 0.194 | 0.168 | 0.175 | 1.05 | 0.917 | 1 | 0.962 | 1.03 | 1.03 | 0.973 | 1.06 | 1 | 1.21 | 1.09 | 1.19 | 1.1 | 1.12 |
